“And” between values parts separate entries of the source, which are not always exact repeats. Equal values may be shown once.
Columns and labels:
[1] = Phase 1 single-and-multiple-dose study in healthy volunteers: oral glucose tolerance test / safety; format: in vivo, human; conditions: for change in fasting plasma glucose: multiple dosing up to 30 mg; for treatment emergent adverse events of hyperglycemia: repeated daily dosing 5-30 mg, OGTT after 10 days of dosing; for glucose concentration by 2 hours post challenge / peak glucose concentration 1 hour post oral glucose challenge: one subject
Description: A phase 1, randomized, double-blind, placebo-controlled, single and multiple ascending dose study was performed with oral Compound A at a single study center. Inclusion criteria included age 18 to 50 years; body mass index of 18-30 kg/m^2; and if female, postmenopausal by history or surgery. Exclusion criteria included presence of significant medical history.
In the single-dose phase, participants were randomized 6:2 to Compound A (1.25, 2.5, 5, 10, 20, 40, and 60 mg) or placebo in 7 cohorts (S1 to S7). Cohorts comparing oral bioavailability of solution versus capsules and the effect of a standardized high-fat, high-calorie breakfast on oral bioavailability of the capsule formulation employed the 10 mg dose level. In the multiple-dose phase, participants were randomized 6:3 to once-daily oral Compound A-HCl capsules or placebo at doses of 5 mg for 7 days (M1, Day Last=Day 7), and 10, 20, and 30 mg daily for 10 days (M2, M3, M4, Day Last=Day 10).
Safety assessments: Safety assessments included monitoring of clinical laboratory tests, cardiovascular safety monitoring (continuous Holter monitoring, ECG, telemetry), and physical examinations conducted at scheduled times throughout the study in the research units as well as post-discharge (up to 9 days after the single-dose, or up to 11 days after the last dose for multiple-dose cohorts). Adverse events and concomitant medications were recorded. Laboratory samples for clinical chemistry, hematology, coagulation tests, and urinalysis were collected under fasted conditions.
In the multiple-dose cohorts, baseline serum TSH, ACTH, and prolactin samples were collected on Day −2, and an oral glucose tolerance test (OGTT) was conducted on Day −7 or earlier. These assessments were repeated on Day 8 (M1) or Day 11 (M2 and subsequent cohorts).
Clinically significant hypoglycemia occurred in 1 subject in Cohort M3 (Compound A-HCl−10 days at 20 mg/day) at 2 and at 3 hours post-glucose challenge, and in 1 subject in Cohort M4 (Compound A-HCl−10 days at 30 mg/day) at 3 hours post-glucose challenge at the baseline assessment (Day −7).

[2] = Phase 1 multi-cohort single dose study: relative bioavailability and PK of SDD tablets vs HMG capsules; format: in vivo, human
Description: The study was conducted in up to 3 cohorts, each with a specific primary objective: • Cohort 1: To characterize performance of 10 mg tablets prepared by spray-dried dispersion (SDD) of Compound A-HCl salt. • Cohort 2: To evaluate the relative bioavailability of 10 mg SDD tablets compared to the Compound A-HCl hot melt granulation (HMG) formulation, 10 mg capsules. To determine the effect of timing of food administration on pharmacokinetics of low dose of the 10 mg SDD tablets. • Cohort 3: To determine the effect of timing of food administration on pharmacokinetics of SDD tablets and dose proportionality in doses higher than 20 mg. To determine the optimal dosing regimen that results in adequate systemic exposure with short post-dose fasting duration. • Cohort 4: To determine the effect of timing of food administration on pharmacokinetics of SDD tablets in doses higher than 20 mg. To determine the optimal dosing regimen of paltusotine that results in high systemic exposure with low post-dose fasting duration • Cohort 5: To determine the effect of the proton-pump inhibitor (PPI), lansoprazole, on the pharmacokinetics of a 60 mg dose of SDD tablets. To determine the effect of a low-fat meal on the pharmacokinetics of a 60 mg dose of SDD tablets.
The SDD tablets were evaluated. Up to twelve (12) healthy male and female subjects were enrolled in each cohort. Cohort 1 consisted of 4 periods: In Period 1, subjects were administered a proton-pump inhibitor (lansoprazole, 15 mg BID for 3 days (from Day −3), taken orally at least 30 min prior to a meal, once in the morning and once in the evening). On the fourth day (Day 1 of study), fasted subjects will take the last dose of lansoprazole (15 mg) 60 min prior to 20 mg Compound A (2×10 mg of the SDD tablets). In Period 2, fasted subjects were administered 20 mg Compound A (2×10 mg of the SDD tablets). In Period 3, fasted subjects were administered 20 mg Compound A (2×10 mg of the SDD tablets) with a high-fat, high-calorie meal. In Period 4, fasted subjects will take up to 80 mg Compound A (up to 8×10 mg of the SDD tablets). […]

[3] = test system: insulin-like growth factor-1 (IGF-1); assay: ACROBAT Edge Phase 2 study in acromegaly: IGF-1 levels; format: in vivo, human
Description: (§1) An open label exploratory study designed to evaluate the safety, efficacy, and pharmacokinetics of Compound A (also known as paltusotine) in subjects with acromegaly that are treated with somatostatin analogue (SSA) based treatment regimens.
(§2) 5 mg or 10 mg HMG capsule formulation. Multiple capsules were swallowed with water depending on dose specified for a given period/cohort. Enrolled patients began treatment with oral paltusotine 10 mg/day. The dose was up-titrated in a double-blind manner in 10-mg increments to a maximum 40 mg/day at weeks 4, 7 and 10 according to IGF-1 levels measured at weeks 2, 5, and 8, respectively. Up-titrations were performed if the investigator confirmed that the patient was tolerating the current dose and the unblinded central IGF-1 reader determined that IGF-1 was >0.9×ULN at week 2 and 5 or >1.0×ULN at week 8.
Primary Outcome Measures: Change from baseline (mean of Screening values) in insulin-like growth factor-1 (IGF-1) level [Time Frame: 13 Weeks].
The primary hypothesis was that the group would show no change in the median IGF-1 at Week 13 versus baseline.

growth hormone (GH) = assay: ACROBAT Edge Phase 2 study in acromegaly: GH levels; format: in vivo, human
Description: as §1, §2

subjects with acromegaly [4] = assay: ACROBAT Edge: patient reported outcomes (Acromegaly Symptom Diary, PGI-I); format: in vivo, human
Description: Patients recorded daily acromegaly symptoms using a nine-item Acromegaly Symptom Diary (ASD). The ASD is a 9-item patient-reported measure of symptoms associated with acromegaly, including headache, joint pain, sweating, fatigue, leg weakness, swelling, numbness/tingling, sleep difficulties, and short-term memory difficulties. Symptoms experienced in the previous 24 hours are rated on an 11-point scale, from 0 (no symptom) to 10 (worst symptom). Patient Global Impression of Improvement (PGI-I) scale was completed at week 13 (end of treatment).

IGF-1 [5] = assay: ACROBAT Advance long-term study: IGF-1; format: in vivo, human; conditions: once daily oral, 10-40 mg/day HMG capsules; interim results
Description: (§3) ACROBAT Advance is an ongoing open-label, long-term (5 year) safety and efficacy study of paltusotine in patients rolling-over from the ACROBAT Evolve & Edge studies.
(§4) Eligible patients completing ACROBAT Edge and Evolve entered ACROBAT Advance either immediately on completion of a washout period in the parent study or after a gap during which they reverted to their routine standard of care treatment. Paltusotine therapy: initiated at 10 mg/day and titrated up to maximum dose of 40 mg/day based on IGF-1 and tolerability. Patients were administered 10 mg HMG capsules. Combination therapy was allowed for patients not reaching therapeutic targets with 40 mg/day of paltusotine monotherapy.
IGF-1 measured centrally with IDS-ISYS assay calibrated to WHO recombinant reference standard 02/254.

subjects with acromegaly [6] = assay: ACROBAT Advance long-term study: safety and tolerability; format: in vivo, human; conditions: acromegaly patients; including in combination with cabergoline
Description: as §3, §4

[7] = Clinical studies: bioavailability and half-life of Compound A; format: in vivo; conditions: human, plasma, oral
Excerpt: Compound A is a selective nonpeptide SST2 biased agonist. […] In some embodiments, Compound A is used to treat acromegaly, neuroendocrine tumors, or both. In some embodiments, Compound A is used to treat acromegaly. In some embodiments, Compound A is used to treat neuroendocrine tumors. In some embodiments, Compound A is used to treat pituitary gigantism.

IGF-1 [8] = assay: Phase 2 clinical trials of acromegaly patients previously treated with LA-SRLs: steady state IGF-1 change by dose; format: in vivo, human; conditions: baseline = IGF-1 at last LA-SRL injection
Excerpt: The switch to Compound A-monohydrochloride occurred 4 weeks after last LA-SRL injection.

[9] = Cohort M2 (10 mg/day, 10 days), monohydrochloride
[10] = Cohort M3 (20 mg/day, 10 days), monohydrochloride

SMILES: N#Cc1cccc(-c2ccc3ncc(-c4cc(F)cc(F)c4)c(N4CCC(N)CC4)c3c2)c1O [Compound A, 3-(4-(4-amino-piperidin-1-yl)-3-(3,5-difluoro-phenyl)-quinolin-6-yl)-2-hydroxy-benzonitrile]
- change in fasting plasma glucose ([1]; healthy volunteers): not associated with significant changes in fasting plasma glucose
- treatment emergent adverse events of hyperglycemia ([1]; healthy volunteers): Two TEAEs of asymptomatic hyperglycemia occurred
- increase from baseline in serum glucose AUC0-3 hr ([1]; healthy volunteers, up to 30 mg, placebo 18%): up to 36%
- glucose concentration by 2 hours post challenge ([1]; Cohort M2 (10 mg/day, 10 days)): 4.3 mmol/L and 77 mg/dL
- peak glucose concentration 1 hour post oral glucose challenge ([1]; Cohort M2 (10 mg/day, 10 days)): 12.4 mmol/L and 223 mg/dL
- glucose concentration by 2 hours post challenge ([1]; Cohort M3 (20 mg/day, 10 days)): 5.8 mmol/L and 104 mg/dL
- peak glucose concentration 1 hour post oral glucose challenge ([1]; Cohort M3 (20 mg/day, 10 days)): 12.2 mmol/L and 220 mg/dL
- reduction of exposures (Cmax and AUC) when administered with PPI ([2]; Cohort 5, 60 mg SDD tablets): ~40%
- reduction of exposures (Cmax and AUC) when administered with low-fat meal ([2]; Cohort 5, 60 mg SDD tablets): ~60%
- reduction of exposures when administered with high-fat meal ([2]; SDD tablets): > 80%
- change of IGF-1 levels from baseline after 13 weeks of treatment ([3]; acromegaly patients previously treated with injected SRL depots, 10-40 mg/day): did not significantly change from baseline
- IGF-1 after withdrawal of treatment ([3]; acromegaly patients, washout): Rise in IGF-1 after withdrawal (within 2 weeks)
- change of GH levels from baseline after 13 weeks of treatment (growth hormone (GH); acromegaly patients previously treated with injected SRL depots): did not significantly change from baseline levels
- GH after withdrawal of treatment (growth hormone (GH); acromegaly patients, washout): Rise in GH after withdrawal
- change in total ASD score from Baseline to week 13/EoT, median (IQR) (subjects with acromegaly [4]; n=18, score range 0-70): −0.43 (−5.0, 2.4)
- patients "minimally improved" or "no change" on PGI-I (subjects with acromegaly [4]; week 13/EoT): 26 (55.3%) patients
- patients reporting worsening on PGI-I (subjects with acromegaly [4]; week 13/EoT): No patients reported any degree of worsening
- patients "very much improved" or "much improved" on PGI-I (subjects with acromegaly [4]; week 13/EoT, compared to before the study, while treated with depot SRLs): 11 (23.4%) patients
- IGF-1 level on long-term treatment (IGF-1 [5]): lowers and maintains IGF-1 at levels comparable to prior injected SRL therapy for up to 51 weeks
- tolerability and safety profile (subjects with acromegaly [6]): well tolerated with a safety profile similar to that of SRLs
- bioavailability ([7]; read-out: estimated bioavailability): ~70%
- half-life ([7]; read-out: observed half-life): 42 to 50 h

SMILES: Cl.N#Cc1cccc(-c2ccc3ncc(-c4cc(F)cc(F)c4)c(N4CCC(N)CC4)c3c2)c1O [Compound A-HCl, 3-[4-(4-amino-piperidin-1-yl)-3-(3,5-difluoro-phenyl)-quinolin-6-yl]-2-hydroxy-benzonitrile monohydrochloride]
- Glucose AUC (0-3 hr) Difference (SE), oral glucose tolerance test ([1]; healthy volunteers, 7 days - 5 mg/day, Day −7 vs day after last dose): 3.8 (4.00) h*mmol/L
- Glucose AUC (0-3 hr) Difference (SE), oral glucose tolerance test ([1]; healthy volunteers, 10 days - 10 mg/day): 2.4 (3.19) h*mmol/L
- Glucose AUC (0-3 hr) Difference (SE), oral glucose tolerance test ([1]; healthy volunteers, 10 days - 20 mg/day): 5.1 (3.12) h*mmol/L
- Glucose AUC (0-3 hr) Difference (SE), oral glucose tolerance test ([1]; healthy volunteers, 10 days - 30 mg/day, monohydrochloride): 3.2 h*mmol/L and 3.2 (1.34) h*mmol/L
- change in fasting plasma glucose ([1]; healthy volunteers): wasn't significantly changed
- treatment emergent adverse events of hyperglycemia ([1]; healthy volunteers): two treatment emergent adverse effects (TEAEs) of asymptomatic hyperglycemia occurred
- glucose concentration by 2 hours post challenge [1, 9]: 77 mg/dL and 4.3 mmol/L
- peak glucose concentration 1 hour post oral glucose challenge [1, 9]: 12.4 mmol/L and 223 mg/dL
- glucose concentration by 2 hours post challenge [1, 10]: 5.8 mmol/L and 104 mg/dL
- peak glucose concentration 1 hour post oral glucose challenge [1, 10]: 12.2 mmol/L and 220 mg/dL
- steady state IGF-1 change from baseline (IGF-1 [8]; 10 and 20 mg per day): IGF-1 levels that were above baseline
- steady state IGF-1 change from baseline (IGF-1 [8]; 30/day and 40 mg/day): changes from baseline of near zero

Source: patent US20240366587A1, “USES OF A SOMATOSTATIN MODULATOR FOR THE TREATMENT OF DISEASE” (Crinetics Pharmaceuticals, Inc., priority 2021, published 2024)
